Experiments:
TLR4 = molecular target: T1, TLR4 (Homo sapiens, UniProt O00206+Q9Y6Y9); assay: LPS-induced TNF-α secretion (ELISA) in THP1-derived macrophages; assay type: cell-based; conditions: 1 to 50 μM, FIG. 4D
T1 construct: endogenous in cells; host or cells: THP1-derived macrophages (PMA-differentiated)

TLR7 = molecular target: T2, TLR7 (Homo sapiens, UniProt Q9NYK1); assay: IMQ, R848 or CL075-induced TNF-α or IL-6 secretion in THP1-derived macrophages; assay type: cell-based; conditions: R848 or CL075, dose-dependent manner, FIGS. 4E-4G
T2 construct: endogenous in cells; host or cells: THP1-derived macrophages (PMA-differentiated)
T2 sequence (Q9NYK1 27-1049): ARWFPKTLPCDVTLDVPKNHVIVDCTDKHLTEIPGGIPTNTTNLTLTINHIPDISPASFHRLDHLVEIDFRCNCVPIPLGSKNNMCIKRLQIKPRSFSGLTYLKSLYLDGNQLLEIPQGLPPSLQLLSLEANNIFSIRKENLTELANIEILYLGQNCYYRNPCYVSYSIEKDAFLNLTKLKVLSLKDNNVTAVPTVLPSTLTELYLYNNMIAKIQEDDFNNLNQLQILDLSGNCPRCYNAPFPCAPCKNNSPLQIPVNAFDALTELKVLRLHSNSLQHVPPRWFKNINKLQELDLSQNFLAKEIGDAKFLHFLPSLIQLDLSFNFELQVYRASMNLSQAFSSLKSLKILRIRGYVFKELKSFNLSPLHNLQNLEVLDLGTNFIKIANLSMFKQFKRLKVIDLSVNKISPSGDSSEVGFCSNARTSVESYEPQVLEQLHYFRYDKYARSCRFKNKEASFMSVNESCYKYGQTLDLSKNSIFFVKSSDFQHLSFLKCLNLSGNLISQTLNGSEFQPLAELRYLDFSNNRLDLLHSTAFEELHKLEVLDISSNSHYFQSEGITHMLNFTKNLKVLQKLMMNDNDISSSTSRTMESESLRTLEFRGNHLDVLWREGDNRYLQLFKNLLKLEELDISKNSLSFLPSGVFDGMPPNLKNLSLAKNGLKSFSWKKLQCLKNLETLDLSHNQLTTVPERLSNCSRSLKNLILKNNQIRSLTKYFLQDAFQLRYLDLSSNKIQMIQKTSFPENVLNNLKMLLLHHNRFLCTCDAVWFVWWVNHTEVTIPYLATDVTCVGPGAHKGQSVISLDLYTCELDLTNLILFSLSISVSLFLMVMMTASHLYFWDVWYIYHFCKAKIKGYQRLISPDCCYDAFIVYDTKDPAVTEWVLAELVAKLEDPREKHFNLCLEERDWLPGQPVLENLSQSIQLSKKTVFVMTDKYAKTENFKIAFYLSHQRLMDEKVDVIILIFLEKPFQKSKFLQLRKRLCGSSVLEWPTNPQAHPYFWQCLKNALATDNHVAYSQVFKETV

T1 sequence (O00206 24-839): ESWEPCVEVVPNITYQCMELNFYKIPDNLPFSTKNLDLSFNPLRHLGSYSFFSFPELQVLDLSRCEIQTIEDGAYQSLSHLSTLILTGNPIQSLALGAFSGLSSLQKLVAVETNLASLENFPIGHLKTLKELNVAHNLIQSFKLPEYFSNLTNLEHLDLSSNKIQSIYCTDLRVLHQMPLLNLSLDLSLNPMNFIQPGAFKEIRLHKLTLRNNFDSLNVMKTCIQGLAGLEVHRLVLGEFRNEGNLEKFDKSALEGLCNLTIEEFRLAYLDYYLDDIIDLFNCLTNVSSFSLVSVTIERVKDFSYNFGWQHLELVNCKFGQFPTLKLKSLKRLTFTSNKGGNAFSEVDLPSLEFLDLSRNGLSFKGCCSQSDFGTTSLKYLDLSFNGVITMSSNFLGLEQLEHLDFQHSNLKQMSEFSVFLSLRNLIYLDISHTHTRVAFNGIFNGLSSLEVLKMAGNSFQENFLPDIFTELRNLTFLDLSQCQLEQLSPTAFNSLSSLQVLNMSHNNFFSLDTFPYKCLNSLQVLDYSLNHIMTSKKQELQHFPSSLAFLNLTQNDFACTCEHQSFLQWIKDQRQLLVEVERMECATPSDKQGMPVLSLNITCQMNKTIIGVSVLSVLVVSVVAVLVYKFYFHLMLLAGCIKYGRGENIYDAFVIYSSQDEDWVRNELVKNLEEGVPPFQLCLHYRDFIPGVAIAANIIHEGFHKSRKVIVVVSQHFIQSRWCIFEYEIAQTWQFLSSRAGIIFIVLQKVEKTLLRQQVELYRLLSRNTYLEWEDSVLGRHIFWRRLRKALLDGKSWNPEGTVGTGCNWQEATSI
T1 sequence (Q9Y6Y9 17-160 limits assumed): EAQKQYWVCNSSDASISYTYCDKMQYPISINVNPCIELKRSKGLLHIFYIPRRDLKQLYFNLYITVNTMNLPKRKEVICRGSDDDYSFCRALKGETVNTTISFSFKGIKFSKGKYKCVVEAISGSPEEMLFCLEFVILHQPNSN

TLR4 (LPS)-mediated TNF-α secretion (TLR4): did not block
TLR7-mediated TNF-α or IL-6 secretion (TLR7): significantly inhibited
SMILES: Nc1cccc(COc2cccnc2N)c1 [TAC5-a, 3-((3-aminobenzyl)oxy)pyridin-2-amine]

From US11629155B2, “Small molecule antagonist compound TAC5 series having toll-like receptor 3/7/8/9 inhibitory function” (AJOU UNIVERSITY INDUSTRY-ACADEMIC COOPERATION FOUNDATION, priority 2018, dated 2023)
